Usually IC50 stands for the point on the concentration scale where inhibition reaches its midpoint.

Results on 1 compound are retold here after publication PMC8068801, “Novel Benzenesulfonate Scaffolds with a High Anticancer Activity and G2/M Cell Cycle Arrest” (Cancers, 2021).

SMILES strings stand for the structures. A value given as a limit tells only on which side of the number the result lay.

Experiment [1] has as its system K562 cells. Kind of experiment: MTS cytotoxicity assay, K562. The format is cell-based, human. The text has this: (§1) M. Rusin from the Maria Sklodowska-Curie Memorial Cancer Centre and Institute of Oncology in Gliwice, Poland. […] G. Kramer-Marek from the Institute of Cancer Research in London, United Kingdom. The human suspension chronic myelogenous leukemia cell line K562 and pancreas ductal adenocarcinoma cell line PANC-1 were purchased from Sigma-Aldrich (St. Louis, MO, USA), while the normal human dermal fibroblasts cell line NHDF were purchased from PromoCell. […] Each medium contained a combination of two antibiotics: penicillin and streptomycin (1% v/v; Gibco). All of these cell lines were grown under standard conditions at 37 °C with a 5% CO2 humidified atmosphere. Moreover, all of the cell lines were routinely tested for mycoplasma using the PCR technique with specific Mycoplasma primers to confirm that there was no contamination.
(§2) The assay was performed following a 72 h incubation with the various concentrations of the tested compounds. Then, 100 µL DMEM without phenol red with 20 µL of the CellTiter 96®AQueous One Solution-MTS (Promega, Promega, WI, USA) was added to each well and incubated for 1 h or 3 h (PANC-1) at 37 °C. The optical densities of the samples were measured at 490 nm using a multi-plate reader (Synergy 4, BioTek, Winooski, VT, USA). […] Each individual compound was tested in triplicate in a single experiment with each experiment being performed three or four times.
A general note: Tetrazolium dyes change colour on reduction, which living cells bring about.

In experiment [2] the test system is HCT 116 p53^+/+ cells. Kind of experiment: MTS cytotoxicity assay, HCT 116 p53+/+. The format is cell-based, human.
From the text: as §1, §2

Experiment [3] has as its system HCT 116 p53^−/− cells. Kind of experiment: MTS cytotoxicity assay, HCT 116 p53-/-. The format is cell-based, human.
From the text: as §1, §2

Experiment [4] deals with MCF-7 cells. Kind of experiment: MTS cytotoxicity assay, MCF-7. The class given is cell-based, human.
From the text: as §1, §2

Experiment [5] deals with A549 cells. Description: MTS cytotoxicity assay, A549. The format is cell-based, human.
From the text: as §1, §2

For experiment [6], the system named is PANC-1 cells. Kind of experiment: MTS cytotoxicity assay, PANC-1. The format is cell-based, human.
From the text: as §1, §2

Experiment [7] concerns NHDF cells. Description: MTS cytotoxicity assay, normal fibroblasts NHDF. The note with it: NHDF normal human fibroblasts, 72 h incubation. The format is cell-based.
From the text: as §1, §2

The target of experiment [8] is T1, ABL1 (Homo sapiens, UniProt P00519).
T1 construct: purchased Promega
Description: Tyrosine kinase assay (Kinase Selectivity TK-2, ADP-Glo). The class given is biochemical. The settings on record: read-out: Inhibitory Effect of the Tyrosine Kinase Activity, ABL1. As for the experimental part: (§3) Assays using the Kinase Selectivity TK-2 profiling systems and ADP-Glo Kinase Assay (both from Promega) were performed to determine the inhibition of the non-receptor tyrosine kinases. The protocol was previously designed and described by our group in reports. The experiments were performed at least four times. The data are expressed as the percentage of the inhibition activity of tyrosine kinase after treatment with the tested derivatives.

Experiment [9] concerns the target T2, BRK (Homo sapiens, UniProt Q13882).
T2 construct: purchased Promega
The description is as above. The format is biochemical. The settings on record: read-out: Inhibitory Effect of the Tyrosine Kinase Activity, BRK. On the procedure: as §3

In experiment [10] the target is T3, CSK (Homo sapiens, UniProt P41240).
T3 construct: purchased Promega
Described as above. The format is biochemical. The settings on record: read-out: Inhibitory Effect of the Tyrosine Kinase Activity, CSK. On the procedure: as §3

The target of experiment [11] is T4, Fyn A (Homo sapiens, UniProt P06241).
T4 construct: purchased Promega
The experiment is described as above. The settings on record: read-out: Inhibitory Effect of the Tyrosine Kinase Activity, Fyn A. The format is biochemical. As for the experimental part: as §3

The target of experiment [12] is T5, Lyn B (Homo sapiens, UniProt P07948).
T5 construct: purchased Promega
The experiment is described as above. The class given is biochemical. The note with it: read-out: Inhibitory Effect of the Tyrosine Kinase Activity, Lyn B. On the procedure: as §3

Experiment [13] concerns U-251 cells. Description: Immunoblotting with densitometry, U-251. The class given is cell-based, human. On the procedure:
The K562 and U-251 cells were seeded in 3 cm Petri dishes (Nunc) at a density of 500,000 cells per well and incubated overnight. […] Next, the cell pellets were resuspended in an RIPA buffer containing a Halt Protease Inhibitor Cocktail and a Halt Phosphatase Inhibitor Cocktail along with 0.5 M EDTA (all from Thermo Scientific, Waltham, MA, USA) and lysed on ice for 20 min. Then, the obtained lysates were sonicated and centrifuged at 10,000 rpm for 10 min at 4 °C. The supernatants were collected for further analysis. The protein concentration was measured using a Micro BCA™ Protein Assay Kit (Thermo Scientific) according to the manufacturer’s instructions. Equal amounts of the proteins (16 μg) were electrophoresed on SDS-Page gels and transferred onto nitrocellulose membranes. The membranes were blocked in 5% non-fat milk prepared in TPBS (PBS containing 0.1% Tween-20) for 1 h. After blocking, the membranes were incubated with the specific primary antibodies (all from Cell Signaling) at a 1:1000 dilution—cyclin E, cdc2, PARP, AIF, BID, p53, p21^Waf1/Cip1, HIF-1α, cathepsin B and caspase-9—and at a 1:2000 dilution for the reference proteins—vinculin, β-actin and GAPDH—overnight at 4 °C. The next day, the membranes were washed in TPBS and incubated with horseradish peroxidase (HRP)-conjugated secondary antibodies for 1 h at room temperature. Lastly, the membranes were washed in TPBS and incubated with a SuperSignal™ West Pico Chemiluminescent Substrate (Thermo Scientific). The chemiluminescence signals were captured using a ChemiDoc™ XRS + System (Biorad). The experiments were performed at least four to five times. The densitometric analysis was conducted using ImageJ software (Wayne Rasband, National Institutes of Health, Bethesda, MD, USA).
The band intensity of tested proteins (p53, cyclin E1, cdc2, p21, HIF-1α, cathepsin b, PARP, caspase-9, BID, AIF) were analyzed by densitometry readings/intensity ratio, using ImageJ software (NIH) and were normalized to the corresponding reference proteins (GAPDH, vinculin or β-actin) value.
The densitometric readings/intensity ratio data from four/five independent experiments (compared to control): […]
p53/ Refer- p21/ Refer- cdc2/ Refer- Cyclin E1/ HIF-1α/ Cathepsin b/Reference ence ence ence Reference Reference
PARP/Reference BID/ Reference Caspase-9/Reference […]
(In general: In western blotting, separated proteins are transferred to a membrane and probed.)

T4 sequence (P06241 whole entry): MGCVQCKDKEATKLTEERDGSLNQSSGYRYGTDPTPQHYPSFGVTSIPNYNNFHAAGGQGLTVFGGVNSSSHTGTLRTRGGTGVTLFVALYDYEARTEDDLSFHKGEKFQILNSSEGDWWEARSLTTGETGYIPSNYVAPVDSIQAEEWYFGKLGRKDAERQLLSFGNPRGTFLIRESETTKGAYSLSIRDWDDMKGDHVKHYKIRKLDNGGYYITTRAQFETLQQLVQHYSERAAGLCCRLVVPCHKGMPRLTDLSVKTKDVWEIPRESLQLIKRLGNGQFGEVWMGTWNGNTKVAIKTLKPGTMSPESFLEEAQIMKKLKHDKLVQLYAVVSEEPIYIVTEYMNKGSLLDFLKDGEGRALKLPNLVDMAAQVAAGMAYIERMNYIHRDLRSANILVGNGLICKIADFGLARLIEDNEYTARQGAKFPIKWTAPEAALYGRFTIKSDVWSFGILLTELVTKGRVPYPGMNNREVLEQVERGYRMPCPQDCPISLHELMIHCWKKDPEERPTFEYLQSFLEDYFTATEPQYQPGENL
T3 sequence (P41240 whole entry): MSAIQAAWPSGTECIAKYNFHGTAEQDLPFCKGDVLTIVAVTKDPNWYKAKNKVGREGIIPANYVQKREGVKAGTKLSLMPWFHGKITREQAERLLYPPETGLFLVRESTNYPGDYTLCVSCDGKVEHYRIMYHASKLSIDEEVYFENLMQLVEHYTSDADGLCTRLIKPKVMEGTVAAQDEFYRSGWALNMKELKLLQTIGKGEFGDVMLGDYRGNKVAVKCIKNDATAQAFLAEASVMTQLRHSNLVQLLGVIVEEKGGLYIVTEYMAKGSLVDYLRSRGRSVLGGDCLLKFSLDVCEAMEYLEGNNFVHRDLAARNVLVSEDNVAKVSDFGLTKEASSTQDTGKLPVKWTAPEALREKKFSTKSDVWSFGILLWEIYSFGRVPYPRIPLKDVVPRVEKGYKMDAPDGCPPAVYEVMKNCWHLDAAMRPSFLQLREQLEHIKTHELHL
T2 sequence (Q13882 whole entry): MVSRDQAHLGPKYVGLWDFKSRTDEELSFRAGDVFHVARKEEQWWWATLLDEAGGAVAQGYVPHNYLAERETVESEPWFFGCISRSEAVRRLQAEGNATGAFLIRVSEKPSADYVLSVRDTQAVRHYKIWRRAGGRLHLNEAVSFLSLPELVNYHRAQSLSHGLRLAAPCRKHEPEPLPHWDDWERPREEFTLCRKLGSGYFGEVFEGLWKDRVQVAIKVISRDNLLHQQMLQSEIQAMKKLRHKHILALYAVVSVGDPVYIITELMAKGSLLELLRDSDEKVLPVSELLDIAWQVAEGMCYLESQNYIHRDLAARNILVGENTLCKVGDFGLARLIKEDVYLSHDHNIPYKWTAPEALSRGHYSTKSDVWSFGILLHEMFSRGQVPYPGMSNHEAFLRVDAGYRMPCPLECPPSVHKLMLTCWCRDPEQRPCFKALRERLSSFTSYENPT
T1 sequence (P00519 whole entry): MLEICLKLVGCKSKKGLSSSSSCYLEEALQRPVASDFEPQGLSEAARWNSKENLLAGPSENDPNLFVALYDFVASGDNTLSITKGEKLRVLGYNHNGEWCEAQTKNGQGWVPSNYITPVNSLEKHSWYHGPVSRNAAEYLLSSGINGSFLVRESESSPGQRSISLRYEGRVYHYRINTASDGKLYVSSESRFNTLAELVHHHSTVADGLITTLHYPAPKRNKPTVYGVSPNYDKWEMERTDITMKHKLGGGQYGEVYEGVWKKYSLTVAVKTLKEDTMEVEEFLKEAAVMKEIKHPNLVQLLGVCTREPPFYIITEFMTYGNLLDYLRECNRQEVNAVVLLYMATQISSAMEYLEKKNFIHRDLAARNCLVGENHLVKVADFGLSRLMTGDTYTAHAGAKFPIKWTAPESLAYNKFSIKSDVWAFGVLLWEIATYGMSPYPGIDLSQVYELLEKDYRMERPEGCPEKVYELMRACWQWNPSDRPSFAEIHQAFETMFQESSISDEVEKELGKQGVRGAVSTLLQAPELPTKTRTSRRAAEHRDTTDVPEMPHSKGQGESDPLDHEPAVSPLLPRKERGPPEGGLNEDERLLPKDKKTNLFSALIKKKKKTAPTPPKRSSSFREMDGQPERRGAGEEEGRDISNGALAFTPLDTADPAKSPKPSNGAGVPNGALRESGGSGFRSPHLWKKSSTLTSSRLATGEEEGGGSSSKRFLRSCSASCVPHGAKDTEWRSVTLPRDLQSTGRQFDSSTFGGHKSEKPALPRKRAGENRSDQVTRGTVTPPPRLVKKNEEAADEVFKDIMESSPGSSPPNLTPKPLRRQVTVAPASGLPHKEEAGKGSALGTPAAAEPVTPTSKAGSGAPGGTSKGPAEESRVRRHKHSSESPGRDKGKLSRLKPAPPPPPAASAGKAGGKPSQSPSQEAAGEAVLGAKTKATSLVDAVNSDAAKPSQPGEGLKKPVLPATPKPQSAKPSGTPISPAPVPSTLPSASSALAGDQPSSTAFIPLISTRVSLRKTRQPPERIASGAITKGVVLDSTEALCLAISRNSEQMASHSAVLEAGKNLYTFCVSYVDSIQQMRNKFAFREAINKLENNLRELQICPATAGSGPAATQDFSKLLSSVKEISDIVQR
T5 sequence (P07948 1-491 isoform P07948-2): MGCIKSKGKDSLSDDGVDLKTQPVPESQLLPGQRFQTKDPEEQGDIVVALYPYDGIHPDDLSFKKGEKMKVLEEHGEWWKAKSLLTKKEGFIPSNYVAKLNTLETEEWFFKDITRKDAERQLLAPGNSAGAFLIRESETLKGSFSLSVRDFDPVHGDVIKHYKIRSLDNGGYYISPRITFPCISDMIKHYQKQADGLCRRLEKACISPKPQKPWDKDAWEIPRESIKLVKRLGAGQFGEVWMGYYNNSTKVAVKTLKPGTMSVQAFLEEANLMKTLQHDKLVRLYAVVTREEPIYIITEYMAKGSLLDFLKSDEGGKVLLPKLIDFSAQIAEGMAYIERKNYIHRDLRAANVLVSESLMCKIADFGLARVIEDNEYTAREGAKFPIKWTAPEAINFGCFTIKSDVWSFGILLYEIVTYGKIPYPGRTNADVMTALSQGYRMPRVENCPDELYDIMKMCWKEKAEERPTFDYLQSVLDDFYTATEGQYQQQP

`COc1ccccc1/C=C/c1nc(OS(=O)(=O)c2ccc(C)cc2)c2ccccc2n1` [BS4, 2-((E)-2-(2-methoxyphenyl)ethenyl)quinazolin-4-yl 4-methylbenzenesulfonate]: the IC50 in experiment [1] (Homo sapiens, K562, 72 h incubation, MTS) stood at 0.173 ± 0.031 µM; in experiment [2] (Homo sapiens, HCT 116 p53^+/+, 72 h incubation, MTS) it was 1.57 ± 0.357 µM; in [3] (Homo sapiens, HCT 116 p53^−/−, 72 h incubation, MTS), 3.72 ± 0.487 µM; in experiment [4] (Homo sapiens, MCF7, MCF-7, 72 h incubation, MTS), 9.13 ± 2.05 µM; in experiment [5] (Homo sapiens, A549, 72 h, A549, 72 h incubation, MTS), 11.3 ± 1.76 µM; in experiment [6] (Homo sapiens, PANC-1, 72 h incubation, MTS), 0.235 ± 0.042 µM. Moreover, the IC50 in experiment [7] is greater than 25 µM. Moreover, the “Selectivity index, K562” value in experiment [1] (normal fibroblasts NHDF vs K562) was 144.51. In addition, the “Selectivity index, HCT 116 p53+/+” value in experiment [2] (NHDF vs HCT 116 p53+/+) is 15.95. Besides, in [3] (NHDF vs HCT 116 p53 −/−), the “Selectivity index, HCT 116 p53 −/−” value is 6.71. In experiment [4] (NHDF vs MCF-7), the “Selectivity index, MCF-7” value came out at 2.74. In [5] (NHDF vs A549), the “Selectivity index, A549” value is given as 2.20. The “Selectivity index, PANC-1” value in experiment [6] (NHDF vs PANC-1) turned out to be 106.38. Moreover, the inhibition at 0.5 µM in experiment [8] is 0%; in experiment [9] it was 35.5%; in experiment [10] it was 28.3%; in [11] it was 3.51%; in experiment [12], 0%. Moreover, in experiment [13] (U-251, 6 μM, 24 h), the “Cleavage product of caspase-9 (Western blot)” value is reported as “approximately three-fold increase”. Also, the “HIF-1α protein expression (Western blot)” value in experiment [13] (U-251, 24 h) is “significant decrease”. Moreover, the “p21 protein expression (Western blot)” value in experiment [13] (U-251, 24 h) is “more than two-fold increase”. Further, in experiment [13] (U-251, 24 h), the “p53 protein levels (Western blot)” value was “statistically significant increase”.
